Measured values as given in paper doi:10.1101/706168v1 (biorxiv, 2019).

Biological target: TASK-1 (K2P3.1), wild type (Homo sapiens, UniProt O14649)
Test: two-electrode voltage clamp, Xenopus oocytes
Format: cell-based

Sequence of TASK-1 (K2P3.1), wild type (O14649 whole entry): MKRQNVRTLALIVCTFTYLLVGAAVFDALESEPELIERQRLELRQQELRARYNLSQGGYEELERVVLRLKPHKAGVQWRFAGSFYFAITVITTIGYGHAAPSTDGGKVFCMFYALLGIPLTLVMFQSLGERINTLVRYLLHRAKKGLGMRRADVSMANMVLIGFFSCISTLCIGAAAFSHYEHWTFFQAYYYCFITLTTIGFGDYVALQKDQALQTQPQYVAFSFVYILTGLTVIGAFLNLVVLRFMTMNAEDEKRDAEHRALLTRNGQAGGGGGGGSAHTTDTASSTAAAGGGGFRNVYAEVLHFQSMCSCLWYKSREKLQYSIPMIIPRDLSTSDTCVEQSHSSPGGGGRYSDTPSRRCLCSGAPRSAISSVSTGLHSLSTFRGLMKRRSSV

EC50: 7.6 nM
Structure (SMILES): O=C(c1cccc(OC(F)(F)F)n1)N1CCN(Cc2c(-c3ccc(Cl)cc3)nc3ccccn23)CC1 [BAY 2341237, (4-{[2-(4-chlorophenyl)imidazo[1,2-a]pyridin-3-yl]methyl}piperazin-1-yl)[6-(trifluoromethoxy)pyridin-2-yl]methanone]
